Patent US9815842B2, “Pyrazolo pyrimidine derivatives and their use as MALT1 inhibitors” (Novartis AG, priority 2014, dated 2017)
pIC50: −log10 of the molar value.

Tests used:
[1] = target: C-domain of MALT1 (amino acids 329-824) (Homo sapiens (Human), UniProt Q9UDY8); assay: MALT1 biochemical assay (fluorescence lifetime enzyme activity assay); settings: 60 min pre-incubation, 2.5 nM enzyme, 1 μM peptide substrate
Method: The readout parameter is the increase of fluorescence lifetime over time, proportional to enzyme activity.
The assay employs a short peptide substrate labeled with the single fluorophore PT14 as a fluorescence lifetime probe sensitive to the cleavage state of the substrate (PT14: 6-(9-oxo-9H-acridin-10-yl)-hexanoate, AssayMetrics, UK). […] The assay buffer consists of 200 mM Tris/HCl at pH 7.5, 0.8 M Na citrate, 100 μM EGTA, 100 μM DTT and 0.05% (w/v) CHAPS. […] Test compounds were dissolved in 100% (v/v) DMSO or a mixture containing 90% (v/v) DMSO and 10% (v/v) H2O at a stock concentration of 100 mM. Serial dilutions of test compounds were prepared using either 100% (v/v) DMSO or a mixture containing 90% (v/v) DMSO and 10% (v/v) H2O.

Human IL2 promoter = Human IL2 promoter reporter gene assay (RGA) in Jurkat cells; type: cell-based; settings: Jurkat clone K22 290_H23, anti-CD28 mAb + PMA stimulation 5.5 h
Method: Human IL2 Promoter Reporter Gene Assay (RGA) in Jurkat Cells
The transfected Jurkat clone K22 290_H23 was propagated in RPMI 1640 supplemented with 10% heat inactivated fetal calf serum, 50 μM 2-mercaptoethanol and 1 mg/ml Geneticin. The cell concentration should not exceed 1×10e6/ml during culturing. The cells should not exceed passage 30. Prior to the assay the cells were washed and prepared to the concentration of 2×10e6 cells/ml.
Compound dilutions were made as 2×-concentrated solutions then diluted 1/2 by addition to cells. Two hundred and fifty μl of compound dilution and 250 μl of cells were mixed together in wells of a 96-deep well plate. Cells/compounds premix were incubated 30 min at 37° C. and 5% CO2 directly in the deep well plate.
After pre-incubation of cells with compounds, cells were stimulated with anti-CD28 mAb (clone 15E8) at 3 μg/ml+PMA at 1 μg/ml. Both co-stimulants were diluted in culture medium at a 10×-concentrated solution. 10 μl of co-stimulants were pipetted into the white 96-well plates and 100 μl of cell/compound mix was immediately added in duplicates. The cells were stimulated for 5.5 h at 37° C. and 5% CO2.
After cell stimulation, 50 μl of BriteLitePlus reagent (Perkin Elmer) was added to each well and the bioluminescence was measured with a Wallac EnVision reader (Perkin Elmer).

Sequence of C-domain of MALT1 (amino acids 329-824) (Q9UDY8 329-824): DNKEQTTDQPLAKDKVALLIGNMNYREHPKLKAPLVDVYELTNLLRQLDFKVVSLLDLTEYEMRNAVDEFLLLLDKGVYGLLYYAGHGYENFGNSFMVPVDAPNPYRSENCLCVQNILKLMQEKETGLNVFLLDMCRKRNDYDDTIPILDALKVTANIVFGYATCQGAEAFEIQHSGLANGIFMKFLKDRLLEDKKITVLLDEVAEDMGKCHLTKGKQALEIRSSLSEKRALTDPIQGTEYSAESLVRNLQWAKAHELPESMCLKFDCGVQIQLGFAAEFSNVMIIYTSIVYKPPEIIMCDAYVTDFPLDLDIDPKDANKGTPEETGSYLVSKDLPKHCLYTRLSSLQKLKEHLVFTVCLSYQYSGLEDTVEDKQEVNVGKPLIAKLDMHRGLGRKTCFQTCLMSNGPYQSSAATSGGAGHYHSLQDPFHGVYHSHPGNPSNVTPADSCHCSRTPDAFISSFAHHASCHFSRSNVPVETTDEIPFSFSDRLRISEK

pIC50 [1]	pIC50 (Human IL2 promoter)	Structure (SMILES)
8.10	7.52	CO[C@@H](C)c1c(NC(=O)Nc2ccnc(C(F)(F)F)c2)cnc2cc(F)nn12 [Example 7, (S)-1-(2-fluoro-7-(1-methoxyethyl)pyrazolo[1,5-a]pyrimidin-6-yl)-3-(2-(trifluoromethyl)pyridin-4-yl)urea]
	7.72	CO[C@@H](C)c1c(NC(=O)Nc2cnc(-n3nccn3)c(Cl)c2)cnc2cc(Cl)nn12 [Example 10, (S)-1-(5-chloro-6-(2H-1,2,3-triazol-2-yl)pyridin-3-yl)-3-(2-chloro-7-(1-methoxyethyl)pyrazolo[1,5-a]pyrimidin-6-yl)urea]
6.43		CC(C)c1c(NC(=O)Nc2cnc(-c3ccnn3C)c(Cl)c2)cnc2cc(Cl)nn12 [Example 29, 1-(5-chloro-6-(1-methyl-1H-pyrazol-5-yl)pyridin-3-yl)-3-(2-chloro-7-isopropylpyrazolo[1,5-a]pyrimidin-6-yl)urea]
	7.09	CO[C@H](C)c1c(NC(=O)Nc2cnc(-n3nccn3)c(Cl)c2)cnc2cc(Cl)nn12 [Example 46, (R)-1-(5-chloro-6-(2H-1,2,3-triazol-2-yl)pyridin-3-yl)-3-(2-chloro-7-(1-methoxyethyl)pyrazolo[1,5-a]pyrimidin-6-yl)urea]
8.52	7.34	CO[C@@H](C)c1c(NC(=O)Nc2cnc(-n3nccn3)c(C(F)F)c2)cnc2cc(Cl)nn12 [Example 89, (S)-1-(2-chloro-7-(1-methoxyethyl)pyrazolo[1,5-a]pyrimidin-6-yl)-3-(5-(difluoromethyl)-6-(2H-1,2,3-triazol-2-yl)pyridin-3-yl)urea]
8.05	7.34	CO[C@@H](C)c1c(NC(=O)Nc2ccnc(C(F)F)c2)cnc2cc(Cl)nn12 [Example 92, (S)-1-(2-chloro-7-(1-methoxyethyl)pyrazolo[1,5-a]pyrimidin-6-yl)-3-(2-(difluoromethyl)pyridin-4-yl)urea]
9.00	6.80	CO[C@@H](C)c1c(NC(=O)Nc2cnc(OC(F)F)c(Cl)c2)cnc2cc(Cl)nn12 [Example 93, (S)-1-(5-chloro-6-(difluoromethoxy)pyridin-3-yl)-3-(2-chloro-7-(1-methoxyethyl)pyrazolo[1,5-a]pyrimidin-6-yl)urea]
8.70	7.80	CO[C@@H](C)c1c(NC(=O)Nc2cnc(-n3nccn3)c(C(F)(F)F)c2)cnc2cc(F)nn12 [Example 94, (S)-1-(6-(2H-1,2,3-triazol-2-yl)-5-(trifluoromethyl)pyridin-3-yl)-3-(2-fluoro-7-(1-methoxyethyl)pyrazolo[1,5-a]pyrimidin-6-yl)urea]
8.70	7.89	CO[C@@H](C)c1c(NC(=O)Nc2cnc(-n3nccn3)c(Cl)c2)cnc2cc(F)nn12 [Example 95, (S)-1-(5-chloro-6-(2H-1,2,3-triazol-2-yl)pyridin-3-yl)-3-(2-fluoro-7-(1-methoxyethyl)pyrazolo[1,5-a]pyrimidin-6-yl)urea]
8.00	7.31	CO[C@@H](C)c1c(NC(=O)Nc2cnc(-n3nccn3)c(Cl)c2)cnc2cc(C#N)nn12 [Example 96, (S)-1-(5-chloro-6-(2H-1,2,3-tirazol-2-yl)pyridin-3-yl)-3-(2-cyano-7-(1-methoxyethyl)pyrazolo[1,5-a]pyrimidin-6-yl)urea]
8.52	7.17	COCCO[C@@H](C)c1c(NC(=O)Nc2cnc(OC(F)F)c(Cl)c2)cnc2cc(Cl)nn12 [Example 97, (S)-1-(5-chloro-6-(difluoromethoxy)pyridin-3-yl)-3-(2-chloro-7-(1-(2-methoxyethoxy)ethyl)pyrazolo[1,5-a]pyrimidin-6-yl)urea]
	7.36	CO[C@H](c1c(NC(=O)Nc2cnc(-n3nccn3)c(Cl)c2)cnc2cc(Cl)nn12)[C@@H](C)OC [Example 98, 1-(5-chloro-6-(2H-1,2,3-triazol-2-yl)pyridin-3-yl)-3-(2-chloro-7-((1R,2R)-1,2-dimethoxypropyl)pyrazolo[1,5-a]pyrimidin-6-yl)urea]
7.68	7.39	CO[C@@H](C)c1c(NC(=O)Nc2cc(Cl)cnc2OCCN(C)C)cnc2cc(Cl)nn12 [Example 99, (S)-1-(5-chloro-2-(2-(dimethylamino)ethoxy)pyridin-3-yl)-3-(2-chloro-7-(1-methoxyethyl)pyrazolo[1,5-a]pyrimidin-6-yl)urea]
7.72	7.08	C[C@H](O[C@@H]1CCOC1)c1c(NC(=O)Nc2cnc(-n3nccn3)c(Cl)c2)cnc2cc(Cl)nn12 [Example 100, 1-(5-chloro-6-(2H-1,2,3-triazol-2-yl)pyridin-3-yl)-3-(2-chloro-7-((S)-1-(((R)-tetrahydrofuran-3-yl)oxy)ethyl)pyrazolo[1,5-a]pyrimidin-6-yl)urea]
8.30	7.60	C[C@H](O[C@H]1CCOC1)c1c(NC(=O)Nc2cnc(-n3nccn3)c(Cl)c2)cnc2cc(Cl)nn12 [Example 101, 1-(5-chloro-6-(2H-1,2,3-triazol-2-yl)pyridin-3-yl)-3-(2-chloro-7-((S)-1-(((S)-tetrahydrofuran-3-yl)oxy)ethyl)pyrazolo[1,5-a]pyrimidin-6-yl)urea]
8.52	7.85	C[C@H](OC[C@H]1CCOC1)c1c(NC(=O)Nc2cnc(-n3nccn3)c(Cl)c2)cnc2cc(Cl)nn12 [Example 102, 1-(5-chloro-6-(2H-1,2,3-triazol-2-yl)pyridin-3-yl)-3-(2-chloro-7-((S)-1-(((S)-tetrahydrofuran-3-yl)methoxy)ethyl)pyrazolo[1,5-a]pyrimidin-6-yl)urea]
8.30	7.30	C[C@H](OC[C@@H]1CCOC1)c1c(NC(=O)Nc2cnc(-n3nccn3)c(Cl)c2)cnc2cc(Cl)nn12 [Example 103, 1-(5-chloro-6-(2H-1,2,3-triazol-2-yl)pyridin-3-yl)-3-(2-chloro-7-((S)-1-(((R)-tetrahydrofuran-3-yl)methoxy)ethyl)pyrazolo[1,5-a]pyrimidin-6-yl)urea]
8.70	7.62	Cc1cc2ncc(NC(=O)Nc3cnc(-n4nccn4)c(Cl)c3)c(C3(C)CCCO3)n2n1 (stereo not drawn) [Example 104, 1-(5-chloro-6-(2H-1,2,3-triazol-2-yl)pyridin-3-yl)-3-(2-methyl-7-(2-methyltetrahydrofuran-2-yl)pyrazolo[1,5-a]pyrimidin-6-yl)urea]
7.96	7.23	CO[C@@H](C)c1c(NC(=O)Nc2ccnc(C#N)c2)cnc2cc(Cl)nn12 [Example 105, (S)-1-(2-chloro-7-(1-methoxyethyl)pyrazolo[1,5-a]pyrimidin-6-yl)-3-(2-cyanopyridin-4-yl)urea]
8.10	6.32	COCC1(c2c(NC(=O)Nc3cncc(C(F)(F)F)c3)cnc3cc(Cl)nn23)CCCO1 (stereo not drawn) [Example 106, 1-(2-chloro-7-(2-(methoxymethyl)tetrahydrofuran-2-yl)pyrazolo[1,5-a]pyrimidin-6-yl)-3-(5-(trifluoromethyl)pyridin-3-yl)urea]
7.89	7.22	CN(C)C1(c2c(NC(=O)Nc3cnc(-n4nccn4)c(C(F)(F)F)c3)cnc3cc(Cl)nn23)CC1 [Example 107, 1-(6-(2H-1,2,3-triazol-2-yl)-5-(trifluoromethyl)pyridin-3-yl)-3-(2-chloro-7-(1-(dimethylamino)cyclopropyl)pyrazolo[1,5-a]pyrimidin-6-yl)urea]
	6.70	O=C(Nc1cnc(-n2nccn2)c(Cl)c1)Nc1cnc2cc(Cl)nn2c1C1COCCN1 (stereo not drawn) [Example 123, 1-(5-chloro-6-(2H-1,2,3-triazol-2-yl)pyridin-3-yl)-3-(2-chloro-7-(morpholin-3-yl)pyrazolo[1,5-a]pyrimidin-6-yl)urea]

Structure (SMILES)	pIC50 [1]	pIC50 (Human IL2 promoter)
CO[C@@H](C)c1c(NC(=O)Nc2cncc(C#N)c2)cnc2cc(Cl)nn12 [Example 8, (S)-1-(2-chloro-7-(1-methoxyethyl)pyrazolo[1,5-a]pyrimidin-6-yl)-3-(5-cyanopyridin-3-yl)urea]		7.48
CC(C)c1c(NC(=O)Nc2cnc(-n3nccn3)c(Cl)c2)cnc2cc(Cl)nn12 [Example 21, 1-(5-chloro-6-(2H-1,2,3-triazol-2-yl)pyridin-3-yl)-3-(2-chloro-7-isopropylpyrazolo[1,5-a]pyrimidin-6-yl)urea]		6.98
O=C(Nc1cnc(-n2nccn2)c(Cl)c1)Nc1cnc2cc(Cl)nn2c1C1CCOCC1 [Example 58, 1-(5-chloro-6-(2H-1,2,3-triazol-2-yl)pyridin-3-yl)-3-(2-chloro-7-(tetrahydro-2H-pyran-4-yl)pyrazolo[1,5-a]pyrimidin-6-yl)urea]		6.57
